Results from US20210137126A1, “USE OF PEPTIDES AS IN[…]” (INSTITUT NATIONAL DES SCIENCES APPLIQUEES DE LYON, priority 2018, published 2021).

Tested on: pea aphid Acyrthosiphon pisum
Experiment: Insecticide test: ingestion of the peptide in artificial medium by pea aphid larvae, mortality monitored over 7 days
Format: in vivo
Conditions: for TL50 (lethal time at which mortality of individuals is 50%): survival analysis, normal logarithmic adjustment
Description: The experiments were carried out on aphids from the parthenogenetic clone of the pea aphid LL01 which contained only the primary symbiont B. aphidicola. The aphids were bred and kept on feva bean plants (Vicia faba L., Aquadulce variety) under climate-controlled conditions (temperature 21±1° C., relative humidity 70%, photoperiod of 16 h), in order to obtain aphids which reproduced solely by viviparous parthenogenesis. In order to reduce the variability linked to the use of individuals at different stages of development, the aphids were obtained from a synchronized brood. For this, adult aphids that were ready to lay were placed on feva bean plants. […] The manipulation was carried out with a negative control composed solely of artificial medium and a positive control representing one of the concentrations of the range being studied with the aphids. The range being studied comprised different media containing the BCR4 peptide studied at various concentrations which varied from 5 to 80 μM. The experiments were carried out on thirty larvae per condition divided into three distinct groups of ten individuals.
All of the data regarding the mortality of the aphids were analyzed statistically by standard survival processing. All of the BCR4 concentrations were analyzed separately in a parametric survival analysis with a normal logarithmic adjustment.
The measurement of the insecticidal activity of BCR4 was carried out by incorporating increasing doses of peptides into the nutrient medium for the aphids and monitoring of their mortality was carried out over 7 days.

DFDPTEFKGPFPTIEICSKYCAVVCNYTSRPCYCVEAAKERDQWFPYCYD (listed as Acyrthosiphon pisum) [BCR4, Bacteriocyte Cysteine Rich peptide of Acyrthosiphon pisum]
TL50 (lethal time at which mortality of individuals is 50%) (BCR4 concentration 5 μM in artificial medium): >20 days
TL50 (lethal time at which mortality of individuals is 50%) (BCR4 concentration 10 μM in artificial medium): 11.3 days
TL50 (lethal time at which mortality of individuals is 50%) (BCR4 concentration 20 μM in artificial medium): 3.48 days
TL50 (lethal time at which mortality of individuals is 50%) (BCR4 concentration 27.5 μM in artificial medium): 3.24 days
TL50 (lethal time at which mortality of individuals is 50%) (BCR4 concentration 35 μM in artificial medium): 1.94 days
TL50 (lethal time at which mortality of individuals is 50%) (BCR4 concentration 40 μM in artificial medium): 1.76 days
TL50 (lethal time at which mortality of individuals is 50%) (BCR4 concentration 80 μM in artificial medium): 1.16 days
mortality at onset of the dose-response effect (from the first day following ingestion): high mortality
dose-response over the survival time for the aphids (increasing doses 5 to 80 μM, mortality monitored over 7 days): very significant dose-response
range of activity (insecticidal) (pea aphid, peptide in nutrient medium): 5 to 80 µM
